Structures can show the parent of a compound that is named as a salt.
Test system: KRas G12D-mediated phosphorylation of ERK
Experiment: Inhibition of KRas G12D-mediated phosphorylation of ERK in AGS cells
Assay type: cell-based
Conditions: Homo sapiens; AGS cells expressing G12D, 3 hours, phospho-ERK normalized to GAPDH
In short: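 Fixed, methanol-permeabilized; phospho-ERK (Thr202/Tyr204) by in-cell immunofluorescence normalized to GAPDH. Percent of DMSO control, IC50 by 4-parameter fit.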

| Structure (SMILES) | IC50 [µM] |
| --- | --- |
| COCCO[C@@H]1C[C@@H](COc2nc(N3C[C@H]4CC[C@@H](C3)N4)c3cnc(-c4cccc5cccc(Cl)c45)c(F)c3n2)N(C)C1 [Example 202, 4-((1R,5S)-3,8-diazabicyclo[3.2.1]octan-3-yl)-7-(8-chloronaphthalen-1-yl)-8-fluoro-2-(((2S,4R)-4-(2-methoxyethoxy)-1-methylpyrrolidin-2-yl)methoxy)pyrido[4,3-d]pyrimidine] | 10.2 |
| Fc1c(-c2cncc3cccc(Cl)c23)ncc2c(N3C[C@H]4CC[C@@H](C3)N4)nc(OC[C@]34CCCN3C[C@@H](F)C4)nc12 [Example 203, 4-((1R,5S)-3,8-diazabicyclo[3.2.1]octan-3-yl)-7-(5-chloroisoquinolin-4-yl)-8-fluoro-2-(((2S,7aR)-2-fluorotetrahydro-1H-pyrrolizin-7a(5H)-yl)methoxy)pyrido[4,3-d]pyrimidine] | 2.18 |
| C#Cc1cccc2cncc(-c3ncc4c(N5C[C@H]6CC[C@@H](C5)N6)nc(OC[C@]56CCCN5C[C@@H](F)C6)nc4c3F)c12 [Example 204, 4-((1R,5S)-3,8-diazabicyclo[3.2.1]octan-3-yl)-7-(5-ethynylisoquinolin-4-yl)-8-fluoro-2-(((2S,7aR)-2-fluorotetrahydro-1H-pyrrolizin-7a(5H)-yl)methoxy)pyrido[4,3-d]pyrimidine] | 0.307 |
| C#Cc1cccc2cccc(-c3ncc4c(N5C[C@H]6CC[C@@H](C5)N6)nc(OC[C@]56CCCN5C[C@@H](F)C6)nc4c3F)c12 [Example 205, 4-((1R,5S)-3,8-diazabicyclo[3.2.1]octan-3-yl)-7-(8-ethynylnaphthalen-1-yl)-8-fluoro-2-(((2S,7aR)-2-fluorotetrahydro-1H-pyrrolizin-7a(5H)-yl)methoxy)pyrido[4,3-d]pyrimidine] | 0.242 |
| C#Cc1cccc2cccc(-c3ncc4c(N5C[C@H]6CC[C@@H](C5)N6)nc(OC[C@@H]5CCCN5C)nc4c3F)c12 [Example 206, 4-((1R,5S)-3,8-diazabicyclo[3.2.1]octan-3-yl)-7-(8-ethynylnaphthalen-1-yl)-8-fluoro-2-(((S)-1-methylpyrrolidin-2-yl)methoxy)pyrido[4,3-d]pyrimidine] | 0.9 |
| CN1C[C@H](NC(=O)c2cccc(S(=O)(=O)F)c2)C[C@H]1COc1nc(N2C[C@H]3CC[C@@H](C2)N3)c2cnc(-c3cccc4cccc(Cl)c34)c(F)c2n1 [Example 211, 3-(((3R,5S)-5-(((4-((1R,5S)-3,8-diazabicyclo[3.2.1]octan-3-yl)-7-(8-chloronaphthalen-1-yl)-8-fluoropyrido[4,3-d]pyrimidin-2-yl)oxy)methyl)-1-methylpyrrolidin-3-yl)carbamoyl)benzenesulfonyl fluoride tris(2,2,2-trifluoroacetate)] | 13.5 |
| CN1CCC[C@H]1COc1nc(N2CC3CCC(C=O)(C2)N3)c2cnc(-c3cc(O)cc4ccccc34)c(F)c2n1 (stereo partly drawn) [Example 214, 3-(8-fluoro-7-(3-hydroxynaphthalen-1-yl)-2-(((S)-1-methylpyrrolidin-2-yl)methoxy)pyrido[4,3-d]pyrimidin-4-yl)-3,8-diazabicyclo[3.2.1]octane-1-carbaldehyde] | > 16.7 |
| CN1CCC[C@H]1COc1nc(N2CC3CCC(CO)(C2)N3)c2cnc(-c3cc(O)cc4ccccc34)c(F)c2n1 (stereo partly drawn) [Example 215, 4-(8-fluoro-4-(1-(hydroxymethyl)-3,8-diazabicyclo[3.2.1]octan-3-yl)-2-(((S)-1-methylpyrrolidin-2-yl)methoxy)pyrido[4,3-d]pyrimidin-7-yl)naphthalen-2-ol bis(2,2,2-trifluoroacetate)] | > 16.7 |
| CO[C@@H]1CN2CCC[C@]2(COc2nc(N3C[C@H]4CC[C@@H](C3)N4)c3cnc(-c4cccc5cccc(Cl)c45)c(F)c3n2)C1 [Example 219, 4-((1R,5S)-3,8-diazabicyclo[3.2.1]octan-3-yl)-7-(8-chloronaphthalen-1-yl)-8-fluoro-2-((2-methoxytetrahydro-1H-pyrrolizin-7a(5H)-yl)methoxy)pyrido[4,3-d]pyrimidine bis-hydrochloride] | 2.03 |
| O[C@H]1CN2CCC[C@@]2(COc2nc(N3CC4CCC(C3)N4)c3cnc(-c4cccc5cccc(Cl)c45)c(F)c3n2)C1 [Example 223, 7a-(((4-((1R,5S)-3,8-diazabicyclo[3.2.1]octan-3-yl)-7-(8-chloronaphthalen-1-yl)-8-fluoropyrido[4,3-d]pyrimidin-2-yl)oxy)methyl)hexahydro-1H-pyrrolizin-2-ol bis-2,2,2-trifluoroacetate] | 4.27 |
| CO[C@H]1CN2CCC[C@]2(COc2nc(N3CC4CCC(C3)N4)c3cnc(-c4cccc5cccc(Cl)c45)c(F)c3n2)C1 [Example 225, 4-((1R,5S)-3,8-diazabicyclo[3.2.1]octan-3-yl)-7-(8-chloronaphthalen-1-yl)-8-fluoro-2-((2-methoxytetrahydro-1H-pyrrolizin-7a(5H)-yl)methoxy)pyrido[4,3-d]pyrimidine bis-2,2,2-trifluoroacetate] | 3.06 |
| Fc1c(-c2cccc3cccc(Cl)c23)ncc2c(N3CC4CCC(C3)N4)nc(OCC34CCCN3C[C@H](F)C4)nc12 (stereo partly drawn) [Example 226, 4-((1R,5S)-3,8-diazabicyclo[3.2.1]octan-3-yl)-7-(8-chloronaphthalen-1-yl)-8-fluoro-2-((2-fluorotetrahydro-1H-pyrrolizin-7a(5H)-yl)methoxy)pyrido[4,3-d]pyrimidine bis-hydrochloride] | 6.75 |
| CC1(C)CN2CCCC2(COc2nc(N3CC4CCC(C3)N4)c3cnc(-c4cccc5cccc(Cl)c45)c(F)c3n2)C1 [Example 228, 4-((1R,5S)-3,8-diazabicyclo[3.2.1]octan-3-yl)-7-(8-chloronaphthalen-1-yl)-2-((2,2-dimethyltetrahydro-1H-pyrrolizin-7a(5H)-yl)methoxy)-8-fluoropyrido[4,3-d]pyrimidine bis-2,2,2-trifluoroacetate] | 13.7 |
| Fc1c(-c2ccccc2OC(F)(F)F)ncc2c(N3C[C@H]4CC[C@@H](C3)N4)nc(OCC34CCCN3CCC4)nc12 [Example 229, 4-((1R,5S)-3,8-diazabicyclo[3.2.1]octan-3-yl)-8-fluoro-2-((tetrahydro-1H-pyrrolizin-7a(5H)-yl)methoxy)-7-(2-(trifluoromethoxy)phenyl)pyrido[4,3-d]pyrimidine bis-hydrochloride] | 11.3 |
| C#Cc1cccc2cc(OC)cc(-c3ncc4c(N5C[C@H]6CC[C@@H](C5)N6)nc(OCC56CCCN5CCC6)nc4c3F)c12 [Example 231, 4-((1R,5S)-3,8-diazabicyclo[3.2.1]octan-3-yl)-7-(8-ethynyl-3-methoxynaphthalen-1-yl)-8-fluoro-2-((hexahydro-1H-pyrrolizin-7a-yl)methoxy)pyrido[4,3-d]pyrimidine] | 2.81 |
| C#Cc1c(F)ccc2cc(O)cc(-c3ncc4c(N5C[C@H]6CC[C@@H](C5)N6)nc(OCC56CCCN5CCC6)nc4c3F)c12 [Example 232, 4-(4-((1R,5S)-3,8-diazabicyclo[3.2.1]octan-3-yl)-8-fluoro-2-((tetrahydro-1H-pyrrolizin-7a(5H)-yl)methoxy)pyrido[4,3-d]pyrimidin-7-yl)-5-ethynyl-6-fluoronaphthalen-2-ol] | 0.0152 |
| c1ccc2c(-c3cc4nc(OCC56CCCN5CCC6)nc(N5C[C@H]6CC[C@@H](C5)N6)c4cn3)cccc2c1 [Example 233, 4-((1R,5S)-3,8-diazabicyclo[3.2.1]octan-3-yl)-7-(naphthalen-1-yl)-2-((tetrahydro-1H-pyrrolizin-7a(5H)-yl)methoxy)pyrido[4,3-d]pyrimidine] | 15.6 |
| Fc1c(-c2cccc3cccc(F)c23)ncc2c(N3C[C@H]4CC[C@@H](C3)N4)nc(OCC34CCCN3CCC4)nc12 [Example 234, 4-((1R,5S)-3,8-diazabicyclo[3.2.1]octan-3-yl)-8-fluoro-7-(8-fluoronaphthalen-1-yl)-2-((tetrahydro-1H-pyrrolizin-7a(5H)-yl)methoxy)pyrido[4,3-d]pyrimidine] | 0.409 |
| Fc1c(-c2cccc3cccc(Br)c23)ncc2c(N3C[C@H]4CC[C@@H](C3)N4)nc(OCC34CCCN3CCC4)nc12 [Example 235, 4-((1R,5S)-3,8-diazabicyclo[3.2.1]octan-3-yl)-7-(8-bromonaphthalen-1-yl)-8-fluoro-2-((tetrahydro-1H-pyrrolizin-7a(5H)-yl)methoxy)pyrido[4,3-d]pyrimidine] | 0.339 |
| COc1cccc2cccc(-c3ncc4c(N5C[C@H]6CC[C@@H](C5)N6)nc(OCC56CCCN5CCC6)nc4c3F)c12 [Example 236, 4-((1R,5S)-3,8-diazabicyclo[3.2.1]octan-3-yl)-8-fluoro-2-((hexahydro-1H-pyrrolizin-7a-yl)methoxy)-7-(8-methoxynaphthalen-1-yl)pyrido[4,3-d]pyrimidine] | 2.63 |
| OCc1cccc2cccc(-c3ncc4c(N5C[C@H]6CC[C@@H](C5)N6)nc(OCC56CCCN5CCC6)nc4c3F)c12 [Example 238, (8-(4-((1R,5S)-3,8-diazabicyclo[3.2.1]octan-3-yl)-8-fluoro-2-((tetrahydro-1H-pyrrolizin-7a(5H)-yl)methoxy)pyrido[4,3-d]pyrimidin-7-yl)naphthalen-1-yl)methanol] | 4.66 |
| OCCc1cccc2cccc(-c3ncc4c(N5C[C@H]6CC[C@@H](C5)N6)nc(OCC56CCCN5CCC6)nc4c3F)c12 [Example 239, 2-(8-(4-((1R,5S)-3,8-diazabicyclo[3.2.1]octan-3-yl)-8-fluoro-2-((tetrahydro-1H-pyrrolizin-7a(5H)-yl)methoxy)pyrido[4,3-d]pyrimidin-7-yl)naphthalen-1-yl)ethan-1-ol] | 2.95 |
| NC(=O)Cc1cccc2cccc(-c3ncc4c(N5C[C@H]6CC[C@@H](C5)N6)nc(OCC56CCCN5CCC6)nc4c3F)c12 [Example 240, 2-(8-(4-((1R,5S)-3,8-diazabicyclo[3.2.1]octan-3-yl)-8-fluoro-2-((tetrahydro-1H-pyrrolizin-7a(5H)-yl)methoxy)pyrido[4,3-d]pyrimidin-7-yl)naphthalen-1-yl)acetamide] | > 16.7 |

— US11453683B1, “KRas G12D inhibitors” (Mirati Therapeutics, Inc., priority 2019, dated 2022)
